Data as given in patent US20060134102A1, “Lymphotoxin beta receptor agents in combination with chemotherapeutic agents” (Biogen Idec MA Inc., priority 2002, published 2006).
“And” between values parts separate entries of the source, which are not always exact repeats. Identical values can stand only once.

System: KM-20L2 human colorectal adenocarcinoma
Assay: KM-20L2 xenograft model: growth of established KM-20L2 human colorectal tumors in athymic nude mice (tumor volume/weight, % T/C, Fa, Combination Index)
Format: in vivo

huCBE11: humanized anti-LT-β-R agonist antibody (LTβ receptor-activating mAb), described in WO 02/30986
Mean Fraction Affected (Fa) (huCBE11 2 mg/kg, Day 9): 0.103
Mean Fraction Affected/Fraction Unaffected (Fa/Fu) (huCBE11 2 mg/kg, Day 9): 0.115
Mean Tumor Volume (huCBE11 2 mg/kg, Day 9): 100.3 cubic mm
Mean Tumor Volume Decrease (huCBE11 2 mg/kg, Day 9): 11.5 cubic mm
Mean Fraction Affected (Fa) (huCBE11 2 mg/kg, Day 13): 0.057
Mean Fraction Affected/Fraction Unaffected (Fa/Fu) (huCBE11 2 mg/kg, Day 13): 0.061
Mean Tumor Volume (huCBE11 2 mg/kg, Day 13): 162.7 cubic mm
Mean Tumor Volume Decrease (huCBE11 2 mg/kg, Day 13): 9.9 cubic mm
Mean Fraction Affected (Fa) (huCBE11 2 mg/kg, Day 16): 0.119
Mean Fraction Affected/Fraction Unaffected (Fa/Fu) (huCBE11 2 mg/kg, Day 16): 0.135
Mean Tumor Volume (huCBE11 2 mg/kg, Day 16): 233.5 cubic mm
Mean Tumor Volume Decrease (huCBE11 2 mg/kg, Day 16): 31.5 cubic mm
Mean Fraction Affected (Fa) (huCBE11 2 mg/kg, Day 20): 0.342
Mean Fraction Affected/Fraction Unaffected (Fa/Fu) (huCBE11 2 mg/kg, Day 20): 0.521
Mean Tumor Volume (huCBE11 2 mg/kg, Day 20): 263.7 cubic mm
Mean Tumor Volume Decrease (huCBE11 2 mg/kg, Day 20): 137.3 cubic mm
Mean Fraction Affected/Fraction Unaffected (Fa/Fu) (huCBE11 2 mg/kg, Day 23): 0.554
Mean Tumor Volume (huCBE11 2 mg/kg, Day 23): 339.2 cubic mm
Mean Tumor Volume Decrease (huCBE11 2 mg/kg, Day 23): 188.0 cubic mm
Mean Fraction Affected (Fa) (huCBE11 2 mg/kg, Day 27): 0.419
Mean Fraction Affected/Fraction Unaffected (Fa/Fu) (huCBE11 2 mg/kg, Day 27): 0.720
Mean Tumor Volume (huCBE11 2 mg/kg, Day 27): 388.7 cubic mm
Mean Tumor Volume Decrease (huCBE11 2 mg/kg, Day 27): 279.9 cubic mm
Mean Fraction Affected (Fa) (huCBE11 2 mg/kg, Day 30): 0.449
Mean Fraction Affected/Fraction Unaffected (Fa/Fu) (huCBE11 2 mg/kg, Day 30): 0.813
Mean Tumor Volume (huCBE11 2 mg/kg, Day 30): 450.1 cubic mm
Mean Tumor Volume Decrease (huCBE11 2 mg/kg, Day 30): 366.1 cubic mm
Mean Fraction Affected (Fa) (huCBE11 2 mg/kg, Day 34): 0.505
Mean Fraction Affected/Fraction Unaffected (Fa/Fu) (huCBE11 2 mg/kg, Day 34): 1.020
Mean Tumor Volume (huCBE11 2 mg/kg, Day 34): 519.9 cubic mm
Mean Tumor Volume Decrease (huCBE11 2 mg/kg, Day 34): 530.4 cubic mm
Mean Fraction Affected (Fa) (huCBE11 2 mg/kg, Day 37): 0.520
Mean Fraction Affected/Fraction Unaffected (Fa/Fu) (huCBE11 2 mg/kg, Day 37): 1.082
Mean Tumor Volume (huCBE11 2 mg/kg, Day 37): 580.1 cubic mm
Mean Tumor Volume Decrease (huCBE11 2 mg/kg, Day 37): 627.9 cubic mm
Mean Fraction Affected (Fa) (huCBE11 2 mg/kg, Day 41): 0.567
Mean Fraction Affected/Fraction Unaffected (Fa/Fu) (huCBE11 2 mg/kg, Day 41): 1.310
Mean Tumor Volume (huCBE11 2 mg/kg, Day 41): 623.2 cubic mm
Mean Tumor Volume Decrease (huCBE11 2 mg/kg, Day 41): 816.2 cubic mm
Mean Fraction Affected (Fa) (huCBE11 2 mg/kg, Day 43): 0.588
Mean Fraction Affected/Fraction Unaffected (Fa/Fu) (huCBE11 2 mg/kg, Day 43): 1.424
Mean Tumor Volume (huCBE11 2 mg/kg, Day 43): 662.7 cubic mm
Mean Tumor Volume Decrease (huCBE11 2 mg/kg, Day 43): 944.0 cubic mm
Tumor growth vs vehicle control (huCBE11 4 mg/kg and 2 mg/kg, Days 20-55, separate study): significantly decreased
Mean Fraction Affected (Fa) (huCBE11 4 mg/kg, Day 9): −0.125
Mean Fraction Affected/Fraction Unaffected (Fa/Fu) (huCBE11 4 mg/kg, Day 9): −0.111
Mean Tumor Volume (huCBE11 4 mg/kg, Day 9): 125.8 cubic mm
Mean Tumor Volume Decrease (huCBE11 4 mg/kg, Day 9): −14.0 cubic mm
Mean Fraction Affected (Fa) (huCBE11 4 mg/kg, Day 13): −0.048
Mean Fraction Affected/Fraction Unaffected (Fa/Fu) (huCBE11 4 mg/kg, Day 13): −0.046
Mean Tumor Volume (huCBE11 4 mg/kg, Day 13): 180.9 cubic mm
Mean Tumor Volume Decrease (huCBE11 4 mg/kg, Day 13): −8.3 cubic mm
Mean Fraction Affected/Fraction Unaffected (Fa/Fu) (huCBE11 4 mg/kg, Day 16): 0.070
Mean Tumor Volume (huCBE11 4 mg/kg, Day 16): 247.6 cubic mm
Mean Tumor Volume Decrease (huCBE11 4 mg/kg, Day 16): 17.4 cubic mm
Mean Fraction Affected (Fa) (huCBE11 4 mg/kg, Day 20): 0.307
Mean Fraction Affected/Fraction Unaffected (Fa/Fu) (huCBE11 4 mg/kg, Day 20): 0.442
Mean Tumor Volume (huCBE11 4 mg/kg, Day 20): 278.0 cubic mm
Mean Tumor Volume Decrease (huCBE11 4 mg/kg, Day 20): 123.0 cubic mm
Mean Fraction Affected (Fa) (huCBE11 4 mg/kg, Day 23): 0.347
Mean Fraction Affected/Fraction Unaffected (Fa/Fu) (huCBE11 4 mg/kg, Day 23): 0.531
Mean Tumor Volume (huCBE11 4 mg/kg, Day 23): 344.3 cubic mm
Mean Tumor Volume Decrease (huCBE11 4 mg/kg, Day 23): 182.9 cubic mm
Mean Fraction Affected (Fa) (huCBE11 4 mg/kg, Day 27): 0.423
Mean Fraction Affected/Fraction Unaffected (Fa/Fu) (huCBE11 4 mg/kg, Day 27): 0.733
Mean Tumor Volume (huCBE11 4 mg/kg, Day 27): 385.8 cubic mm
Mean Tumor Volume Decrease (huCBE11 4 mg/kg, Day 27): 282.8 cubic mm
Mean Fraction Affected (Fa) (huCBE11 4 mg/kg, Day 30): 0.412
Mean Fraction Affected/Fraction Unaffected (Fa/Fu) (huCBE11 4 mg/kg, Day 30): 0.700
Mean Tumor Volume (huCBE11 4 mg/kg, Day 30): 480.1 cubic mm
Mean Tumor Volume Decrease (huCBE11 4 mg/kg, Day 30): 336.1 cubic mm
Mean Fraction Affected (Fa) (huCBE11 4 mg/kg, Day 34): 0.468
Mean Fraction Affected/Fraction Unaffected (Fa/Fu) (huCBE11 4 mg/kg, Day 34): 0.879
Mean Tumor Volume (huCBE11 4 mg/kg, Day 34): 558.9 cubic mm
Mean Tumor Volume Decrease (huCBE11 4 mg/kg, Day 34): 491.4 cubic mm
Mean Fraction Affected (Fa) (huCBE11 4 mg/kg, Day 37): 0.511
Mean Fraction Affected/Fraction Unaffected (Fa/Fu) (huCBE11 4 mg/kg, Day 37): 1.044
Mean Tumor Volume (huCBE11 4 mg/kg, Day 37): 591.1 cubic mm
Mean Tumor Volume Decrease (huCBE11 4 mg/kg, Day 37): 616.9 cubic mm
Mean Fraction Affected (Fa) (huCBE11 4 mg/kg, Day 41): 0.512
Mean Fraction Affected/Fraction Unaffected (Fa/Fu) (huCBE11 4 mg/kg, Day 41): 1.050
Mean Tumor Volume (huCBE11 4 mg/kg, Day 41): 702.0 cubic mm
Mean Tumor Volume Decrease (huCBE11 4 mg/kg, Day 41): 737.4 cubic mm
Mean Fraction Affected (Fa) (huCBE11 4 mg/kg, Day 43): 0.518
Mean Fraction Affected/Fraction Unaffected (Fa/Fu) (huCBE11 4 mg/kg, Day 43): 1.073
Mean Tumor Volume (huCBE11 4 mg/kg, Day 43): 775.1 cubic mm
Mean Tumor Volume Decrease (huCBE11 4 mg/kg, Day 43): 831.6 cubic mm
Inhibition of tumor growth vs vehicle control (huCBE11 20 mg/kg Days 16 through 55, 2 mg/kg Days 16 through 55, 0.2 mg/kg Days 20 through 55, separate study): significant inhibition of tumor growth
Mean Fraction Affected (Fa) (huCBE11 20 mg/kg alone, Day 9): 0.053
Mean Fraction Affected (Fa) (huCBE11 20 mg/kg alone, Day 13, 20 mg/kg): 0.087 and 0.086
Mean Fraction Affected (Fa) (huCBE11 20 mg/kg alone, Day 16, 20 mg/kg): 0.263 and 0.264
Mean Fraction Affected (Fa) (huCBE11 20 mg/kg alone, Day 20): 0.435
Mean Fraction Affected (Fa) (huCBE11 20 mg/kg alone, Day 23): 0.504
Mean Fraction Affected (Fa) (huCBE11 20 mg/kg alone, Day 27): 0.576
Mean Fraction Affected (Fa) (huCBE11 20 mg/kg alone, Day 30): 0.539
Mean Fraction Affected (Fa) (huCBE11 20 mg/kg alone, Day 34): 0.543
Mean Fraction Affected (Fa) (huCBE11 20 mg/kg alone, Day 37): 0.525
Mean Fraction Affected (Fa) (huCBE11 20 mg/kg alone, Day 41): 0.538
% T/C (huCBE11 20 mg/kg, Day 27 (lowest observed)): 42.4%
Activity by NCI criteria (% T/C at or below 42) (huCBE11, studies of the Camptosar example): inactive
Activity by NCI criteria (% T/C of 42 or less) (huCBE11, studies of the gemcitabine example): active
% T/C (huCBE11 dose groups, throughout both studies (Camptosar example)): > 42%
